Patent publication US10463709B2, “Short synthetic peptide for treating diseases and/or conditions related to angiogenesis” (MacKay Memorial Hospital, priority 2015, dated 2019)
Several values for one entry are separate records, joined by “and”; a condition that tells them apart may be missing. Identical values can stand only once. Square brackets hold non-standard residues; d marks the D form. Ends that are not written are not given here.

How the values were obtained:
RPMI8226 cells = experiment: MTT assay, VEGF-induced proliferation of RPMI8226 cells; format: cell-based; settings: for biological activity of the analogue relative to the 7-mer (summary statement of the description): summary of Example 1 findings; for effect on VEGF-induced proliferation of RPMI8226 cells: VEGF 50 ng/ml, 25 μM peptide, 24 hrs, MTT
Protocol: The multiple myeloma line RPMI8226 was cultivated in complex medium (RPMI1640) supplemented with 10% (vol/vol) heat-inactivated fetal calf serum (Invitrogen), 50 μg/mL penicillin, 50 μg/mL streptomycin, and 2 mM L-glutamine at 37° C. in a 5% CO2 atmosphere. RPMI8226 cells were cultured in serum-free RPMI1640 medium for 24 hrs, and then cells were seeded in 48-well culture plates (3×10^5 cells/well) and continued to culture in 0.5 ml fresh serum-free RPMI1640 medium containing 25 μM peptide for another 24 hrs. The cell viability was determined by the MTT assay. Briefly, 50 μL of MTT stock solution (50 μL) (5 mg MTT dissolved in 1 ml of sterile PBS) was added to each culture well. In addition, 50 μL of the MTT stock solution was added in 500 μL of medium as the negative control. The culture plate was incubated at 37° C. for 4 hours. Aliquots (450 μl) from each sample were taken to a new well of 48-well culture plate, adding 100 μL DMSO, mixing thoroughly using the pipette and reacted at 37° C. for 20 min and read absorbance at 570 nm. These synthesized peptides were then subject to MTT assay, in which vascular endothelial growth factor (VEGF) was used as a stimulant to induce cell proliferation. Results are depicted in FIGS. 1 to 4.

HUVECs [1] = experiment: VEGF-induced HUVEC proliferation assay; format: cell-based; settings: vs untreated HUVECs
Protocol: HUVECs (1×10^5 cells per well of 6-well plate) were grown in Medium 200 with Low Serum Growth Supplement (LSGS Kit, supplement contains 1.9% FBS, 3 ng/ml bFGF, 10 μg/ml heparin, 1 μg/ml hydrocortisone, and 10 ng/ml EGF). Culture plates were coated with 2% gelatin. Cells (passages 4-8) were cultured at 37° C. in a humidified atmosphere of 5% CO2. […]
HUVECs (1×10^5 cells per well of 6-well plate) in Medium 200 supplemented with LSGS Kit were allowed to grow onto 6-well plates coated with 2% gelatin for 24 hours at 37° C. in 5% CO2. The culture medium was then replaced with serum free Medium 200 overnight. […] Then, cells were harvested by trypsin-EDTA and counted using a hemocytometer.

HUVECs [2] = experiment: Endothelial cell capillary-like tube formation assay; format: cell-based; settings: vs untreated HUVECs
Protocol: To examine the effect of the present synthetic peptide on in vitro angiogenesis, growth factor-reduced matrigel was pipetted into pre-chilled 24-well plates (150 μl matrigel per well) and polymerized for 45 min at 37° C. […] In this experiment, images were captured using a Cannon camera on Zeiss inverted microscope with magnification ×40 and tube length was quantified using Image analysis software (Image-Pro Plus). The control peptide as used in the present invention has the sequence of DLYRVR (SEQ ID NO: 10).

rat aortic ring = experiment: Rat aortic ring assay (ex vivo microvessel sprouting); parameters: species or system Sprague Dawley rats; settings: beta-FGF induced; peptide 50 μM
Protocol: Thoracic aortas were removed from euthanized 10-week-old male Sprague Dawley rats, and gently stripped off periaortic fibroadipose tissue. Aortas were sectioned to about 2-mm length rings, which were embedded in Matrigel. To induce angiogenesis, human recombinant bFGF (50 ng/ml) or bFGF plus the peptide (50 μM) was added in Matrigel. Gel (200 μl) containing an aortic ring was polymerized in 12-well plates (37° C. for 30 min) and then incubated with 1 ml of Medium 200 supplemented with 100 units/ml penicillin, and […] streptomycin and 2% FBS at 37 ° C. The cultures were propagated at 37 ° C. in a humidified incubator for up to 7 days. Sprouts were recorded using an inverted microscope platform (Leica DM16000B) with bright-field optics. Each ring was scored by three independent observers on a scale 0-4 depending on the degree of sprouting vessel being observed (0=no sprouting, 4=profuse sprouting). The experiment was repeated in triplicates.

B16-F10 melanoma cells = experiment: Experimental pulmonary metastasis in mice; format: in vivo, C57BL/6 mice; settings: for effect on number of colonies on the surface of the lung / in vivo metastasis / No. lung colonies: 10 mg/Kg intraperitoneal every 2 days; for No. lung colonies: day 8, n = 5; for Inhibition (%): lung colonies vs vehicle, 10 mg/Kg
Protocol: 2×10^5 B16-F10 cells were suspended in 100 μl PBS and checked for viability using trypan blue staining (>95%). The B16-F10 cells were then injected into the tail vein of the 6-week-old female C57BL/6 mice; while vehicle (DMSO), the present synthetic peptide or the control peptide (10 mg/kg) were administered by intraperitoneal injections every 2 days after the B16-F10 cell injection. Five mice were used for each group. On day 8 after inoculation of cells, the lungs were removed, and the number of visible colonies on the surface of the lungs were counted using a dissecting microscope.
Metastasis is the foremost cause of death from cancer. In this example, to investigate the efficacy of the present synthetic peptide on the metastasis of cancer cells, B16-F10 cells were injected into the tail vein of a mouse, the animal was then treated with the present synthetic peptide (7-mer or 7-mer DD, 10 mg/Kg) by intraperitoneal injections every 2 days. Upon completion of the experiment, the lungs were then removed and the tumor colonies visible to the eyes were then counted. Results are depicted in FIG. 10.

[3] = system: STZ-induced diabetic mice; experiment: Vascular abnormalities in the retina of diabetic mice; format: in vivo; settings: for Fluorescence Intensity (Fold): leaked FITC-BSA in entire retina, vs vehicle
Protocol: Diabetic mice were generated by a single intraperitoneal injection of streptozotocin (STZ) (150 mg/kg body weight). STZ was freshly prepared in 0.1 M citrate buffer (pH 4.5). After injection, mice were supplied with 10% sucrose overnight to prevent sudden hypoglycemic shock. After 1 week, mice with non-fasting blood glucose levels >500 mg/dl were defined as diabetic and used for the experiments. DMSO Vehicle or the present synthetic peptide (10 mg/kg; n≥3 per peptide) were administered by intraperitoneal injections twice a day. After treatment for 24 h, mice were intraperitoneal injected with 100 mg/kg of BSA-FITC for further 30 min.
To determine vascular lesions (hemorrhaging areas) in retina, the animals were euthanized by CO2 inhalation, and the eyes were enucleated and fixed by 2% paraformaldehyde for 2 hr and flat-mounted onto glass slides to obtain optical sections by an epifluorescence microscopy. Vascular lesions in the retina was scored in all four retinal quadrants of flat mounts by using a 20× objective. Six microscopic fields were sampled in each quadrant in both the central and peripheral retina, and data were presented as the average number of lesions/retina.
Vascular FITC-BSA leakage was determined by a fluorescence spectrofluorometer based on standard curves of FITC-BSA at excitation and emission wavelengths of 488 and 535 nm, respectively, and then normalized to a non-injected control retina. For this analysis, retinas were dissected from treated and untreated diabetic mice after BSA-FITC injections, and each was solubilized in 300 μL ice-cold PBS.
Diabetic retinopathy is characterized by blood-retinal barrier (BRB) breakdown and neurotoxicity. To evaluate the possible beneficial effect of the present synthetic peptides on diabetic retinopathy, STZ-induced diabetic mice were intraperitoneally injected with 7-mer peptide, DMSO vehicle or the control peptide (SEQ ID NO: 22). The retinal vascular abnormality was then monitored by detecting the extravasation of BSA-fluorescein. Results are depicted in FIG. 11.

[4] = VEGF (10 ng/mL) + 25 μM peptide

## NH2-Asp-Leu-Tyr-(D-Arg)-Val-Arg-Ser-COOH (H-DLY[dR]VRS-OH) [7-mer DR]
RPMI8226 cells
  biological activity of the analogue relative to the 7-mer (summary statement of the description): lose its biological activity

## NH2-Asp-(D-Leu)-Tyr-Arg-Val-(D-Arg)-Ser-COOH (H-D[dL]YRV[dR]S-OH) [7-mer DR2]
RPMI8226 cells
  biological activity of the analogue relative to the 7-mer (summary statement of the description): lose its biological activity

## NH2-Asp-Ile-Tyr-Arg-Val-Pro-Ser-COOH (DIYRVPS; not fully specified (N-terminus, C-terminus); printed as NH2-Asp-Ile-Tyr-Arg-Val-Pro-Ser-COOH) [7-mer IP]
RPMI8226 cells
  effect on VEGF-induced proliferation of RPMI8226 cells: could sustain 7-mer bioactivity, only partly
HUVECs [1]; [4]
  Cell number (Fold): 1.05 ± 0.067 Fold
HUVECs [2]; [4]
  Tube length (Fold): 1.66 ± 0.20 Fold
Rat aortic ring
  level of sprouting microvessels around the aortic ring: inhibited
B16-F10 melanoma cells
  effect on number of colonies on the surface of the lung / in vivo metastasis: may suppress in vivo metastasis
  No. lung colonies: 63 ± 9.4
  Inhibition (%): 72.0%
[3]
  extravasation of FITC-BSA: may significantly prevent
  Fluorescence Intensity (Fold): 0.38 ± 0.12 Fold

## H-D[dL]YRVRS-OH [7-mer DL]
RPMI8226 cells
  biological activity of the analogue relative to the 7-mer (summary statement of the description): lose its biological activity

## NH2-Asp-Leu-Tyr-Arg-Gln-Lys-Ser-COOH (DLYRQKS; not fully specified (N-terminus, C-terminus); printed as NH2-Asp-Leu-Tyr-Arg-Gln-Lys-Ser-COOH) [7-mer QK]
RPMI8226 cells
  effect on VEGF-induced proliferation of RPMI8226 cells: could sustain 7-mer bioactivity, only partly
HUVECs [1]; [4]
  Cell number (Fold): 1.09 ± 0.067 Fold
HUVECs [2]; [4]
  Tube length (Fold): 1.46 ± 0.31 Fold
Rat aortic ring
  level of sprouting microvessels around the aortic ring: inhibited
B16-F10 melanoma cells
  effect on number of colonies on the surface of the lung / in vivo metastasis: may suppress in vivo metastasis
  No. lung colonies: 82 ± 16.3
  Inhibition (%): 63.5%
[3]
  extravasation of FITC-BSA: may significantly prevent
  Fluorescence Intensity (Fold): 0.31 ± 0.081 Fold

## NH2-Ala-Leu-Tyr-Arg-Val-Arg-Ser-COOH (ALYRVRS; not fully specified (N-terminus, C-terminus); printed as NH2-Ala-Leu-Tyr-Arg-Val-Arg-Ser-COOH) [7-mer Da]
RPMI8226 cells
  effect on VEGF-induced proliferation of RPMI8226 cells: sustained part of the 7-mer activity

## NH2-Val-Leu-Tyr-Arg-Val-Arg-Ser-COOH (VLYRVRS; not fully specified (N-terminus, C-terminus); printed as NH2-Val-Leu-Tyr-Arg-Val-Arg-Ser-COOH) [7-mer (D→V)]
RPMI8226 cells
  effect on VEGF-induced proliferation of RPMI8226 cells: could sustain 7-mer bioactivity, only partly
  biological activity of the analogue relative to the 7-mer (summary statement of the description): relatively the same bioactivity

## NH2-Asp-Leu-Tyr-Arg-Val-Gln-Ser-COOH (DLYRVQS; not fully specified (N-terminus, C-terminus); printed as NH2-Asp-Leu-Tyr-Arg-Val-Gln-Ser-COOH) [7-mer (R2→Q)]
RPMI8226 cells
  effect on VEGF-induced proliferation of RPMI8226 cells: could sustain 7-mer bioactivity, only partly

## NH2-Asp-Val-Phe-Arg-Val-Arg-Thr-COOH (DVFRVRT; not fully specified (N-terminus, C-terminus); printed as NH2-Asp-Val-Phe-Arg-Val-Arg-Thr-COOH) [7-mer VFT]
RPMI8226 cells
  effect on VEGF-induced proliferation of RPMI8226 cells: could sustain 7-mer bioactivity, only partly
  biological activity of the analogue relative to the 7-mer (summary statement of the description): relatively the same bioactivity

## NH2-Leu-Leu-Tyr-Arg-Val-Arg-Ser-COOH (LLYRVRS; not fully specified (N-terminus, C-terminus); printed as NH2-Leu-Leu-Tyr-Arg-Val-Arg-Ser-COOH) [7-mer (D→L)]
RPMI8226 cells
  effect on VEGF-induced proliferation of RPMI8226 cells: could sustain 7-mer bioactivity, only partly
  biological activity of the analogue relative to the 7-mer (summary statement of the description): relatively the same bioactivity

## VEGF [reference compound]
HUVECs [1]; VEGF (10 ng/mL) alone
  Cell number (Fold): 1.62 Fold and 1.62 ± 0.070 Fold
HUVECs [2]; VEGF (10 ng/mL) alone
  Tube length (Fold): 3.43 ± 0.32 Fold

## NH2-Phe-Leu-Tyr-Arg-Val-Arg-Ser-COOH (FLYRVRS; not fully specified (N-terminus, C-terminus); printed as NH2-Phe-Leu-Tyr-Arg-Val-Arg-Ser-COOH) [7-mer (D→F)]
RPMI8226 cells
  effect on VEGF-induced proliferation of RPMI8226 cells: could sustain 7-mer bioactivity, only partly
  biological activity of the analogue relative to the 7-mer (summary statement of the description): relatively the same bioactivity

## NH2-Asp-Ala-Tyr-Arg-Val-Arg-Ser-COOH (DAYRVRS; not fully specified (N-terminus, C-terminus); printed as NH2-Asp-Ala-Tyr-Arg-Val-Arg-Ser-COOH) [7-mer La]
RPMI8226 cells
  effect on VEGF-induced proliferation of RPMI8226 cells: sustained part of the 7-mer activity

## NH2-Asp-Leu-(D-Tyr)-Arg-Val-Arg-Ser-COOH (H-DL[dY]RVRS-OH) [7-mer DY]
RPMI8226 cells
  biological activity of the analogue relative to the 7-mer (summary statement of the description): lose its biological activity
HUVECs [1]; [4]
  Cell number (Fold): 1.63 ± 0.077 Fold
